Consider three compounds from patent US7211557B2, “Use of GLP-1 analogs and derivatives administered peripherally in regulation of obesity” (Eli Lilly and Company, priority 1996, dated 2007).

Test [1] can be described thus: Continuous subcutaneous infusion of GLP-1(7-36) amide for four weeks in NIDDM patients, preceded and followed by two weeks of intensive insulin therapy: body weight. Type of test: in vivo, human. The conditions noted are these: for body weight lost, average: four patients, mean±SEM.
For test [2] the following is noted: cited from earlier work.
The conditions of test [3]: cited from earlier work. This is another data set of the same source.
A further test has as its system STC-1 cells. The conditions noted are these: exposure of STC-1 cells; cited from earlier work.

On to GLP-1(7-36) amide, for which the “body weight lost, average” value in test [1] (during GLP-1 treatment (4 weeks)) worked out at 3.5 ± 1.2 kg. The “Weight Change” value was -3.5 ± 1.2 kg in test [1] (mean±SEM of patients, GLP-1 infusion 1.2 pmol/kg/minute s.c., 4 weeks); -3.0 kg in test [1] (patient four, GLP-1 infusion 1.2 pmol/kg/minute s.c., 4 weeks); -7.0 kg in test [1] (patient one, GLP-1 infusion 1.2 pmol/kg/minute s.c., 4 weeks); -1.9 kg in test [1] (patient three, GLP-1 infusion 1.2 pmol/kg/minute s.c., 4 weeks); -2.0 kg in test [1] (patient two, GLP-1 infusion 1.2 pmol/kg/minute s.c., 4 weeks). Besides, the “Patient Weight” value in test [1] (mean±SEM of patients, after GLP-1 infusion 1.2 pmol/kg/minute s.c., 4 weeks) is reported as 92.9 ± 5.8 kg; in test [1] (patient four, after GLP-1 infusion 1.2 pmol/kg/minute s.c., 4 weeks), 108.0 kg; in test [1] (patient one, after GLP-1 infusion 1.2 pmol/kg/minute s.c., 4 weeks), 92.0 kg; in test [1] (patient three, after GLP-1 infusion 1.2 pmol/kg/minute s.c., 4 weeks) it was 80.0 kg; in test [1] (patient two, after GLP-1 infusion 1.2 pmol/kg/minute s.c., 4 weeks), 91.5 kg. For the same compound, in test [1] (peripheral administration to obese patients), the “effect on body weight” value is reported as “significant reduction in body weight”. For the same compound, the food intake result in test [2] (acute intraperitoneal administration in rats) is “does not affect food intake”. Also, the early dark-phase feeding result in test [2] (intraperitoneal administration, even at relatively high doses) is given as “does not affect early dark-phase feeding”. Besides, the “food intake following injection of neuropeptide Y” value in test [3] (ICV, animals fed ad libitum) is listed as “significantly reduces food intake”. For the same compound, in test [3] (intracerebroventricular route (ICV), fasted rats), the feeding result is recorded as “markedly inhibits feeding”.
Regarding `CCCCCCCCCCCCCC(=O)O[C@@H]1[C@@H](C)[C@@]2(O)[C@@H](C=C(CO)C[C@]3(O)C(=O)C(C)=C[C@@H]23)[C@@H]2C(C)(C)[C@]12OC(C)=O` [TPA, 12-O-tetradecanoylphorbol-13-acetate], the “release of GLP-1” value in the test with STC-1 cells is “significant increases in release of GLP-1”.
Turning to insulin, the “body weight lost, average” value in test [1] (first two weeks of intensive insulin treatment) is 1.3 ± 0.6 kg. Besides, the “Weight Change” value was “+1.0 ± 1.0 kg” in test [1] (mean±SEM of patients (no data for MP), Second Insulin treatment, 2 weeks); -1.3 ± 0.6 kg in test [1] (mean±SEM of patients, First Insulin treatment, 2 weeks); -2.0 kg in test [1] (patient four, First Insulin treatment, 2 weeks); 0.0 kg in test [1] (patient four, Second Insulin treatment, 2 weeks); -2.5 kg in test [1] (patient one, First Insulin treatment, 2 weeks); 3.0 kg in test [1] (patient one, Second Insulin treatment, 2 weeks). For the same compound, the “Weight Change” value in test [1] (patient three, First Insulin treatment, 2 weeks) was -0.1 kg; in test [1] (patient two, First Insulin treatment, 2 weeks) it was -0.5 kg; in test [1] (patient two, Second Insulin treatment, 2 weeks), 0.0 kg. Besides, the “Patient Weight” value in test [1] (mean±SEM of patients (no data for MP), after Second Insulin treatment, 2 weeks) was found to be 98.2 ± 5.0 kg; in test [1] (mean±SEM of patients, after First Insulin treatment, 2 weeks), 96.4 ± 6.0 kg; in test [1] (patient four, after First Insulin treatment, 2 weeks) it was 111.0 kg; in test [1] (patient four, after Second Insulin treatment, 2 weeks), 108.0 kg; in test [1] (patient one, after First Insulin treatment, 2 weeks), 99.0 kg; in test [1] (patient one, after Second Insulin treatment, 2 weeks), 95.0 kg. The “Patient Weight” value was 81.9 kg in test [1] (patient three, after First Insulin treatment, 2 weeks); 93.5 kg in test [1] (patient two, after First Insulin treatment, 2 weeks); 91.5 kg in test [1] (patient two, after Second Insulin treatment, 2 weeks). Also, the “body weight change, on average” value in test [1] (second two weeks of intensive insulin treatment) is on record as “gained weight”.
